Columns and labels:
[1] = Aerosolization performance: TIR and FPM from a next generation impactor (NGI), equivalence of MGR001/MGR002 with MGR003; assay type: physicochemical; details: for FPM, Pass/fail (0.90-1.11) / TIR, Pass/fail (0.90-1.11): 90% CI of ratio of geometric means within 0.90-1.11
From the text: The same batches for MGR002 and MGR003 were utilized in obtaining emitted data used to obtain aerosolization performance information. Table 5 below presents the results and equivalence criteria, respectively for 5-[3-(3-Hydroxyphenoxy)azetidin-1-yl]-5-methyl-2,2-diphenylhexanamide hydrochloride of formula II, fluticasone propionate and salmeterol.
The […] (FPM) and mean total impactor recovery (TIR) from a next generation impactor (NGI) for each batch were equivalent, based on the fact that the upper/lower 90% confidence interval of the ratio of the geometric mean, rested between 0.90 and 1.11. […] The fluticasone propionate and salmeterol xinafoate components of the MGR003 drug product also met the same performance targets as the MGR001 250/50 drug product.

[2] = Comparison of fine particle dose (FPD) performance of blended combination, layer filled combination and baseline products; assay type: physicochemical; details: FIG. 6; product T3 (low shear triple blend)
Description: The two options were to either: 1) layer fill blends of the individual products or; 2) low shear mix blends of the individual products. The individual products were either 0.58% w/w salmeterol xinafoate/4% w/w fluticasone propionate combination blend or 4.8% w/w 5-[3-(3-Hydroxyphenoxy)azetidin-1-yl]-5-methyl-2,2-diphenylhexanamide hydrochloride blend.
Four products (L1, L2, L3, and T3) were prepared as outline below. Products L1 and L2 were the baseline products for the layer filled combination product L3, and the blended combination product, T3.
The blend is made of 4.8% w/w 5-[3-(3-Hydroxyphenoxy)azetidin-1-yl]-5-methyl-2,2-diphenylhexanamide hydrochloride mixed with lactose monohydrate in a Diosna high shear blender. The nominal dose of 5-[3-(3-Hydroxyphenoxy)azetidin-1-yl]-5-methyl-2,2-diphenylhexanamide hydrochloride per pocket is 264 mcg.
The blend is made of 0.58% w/w salmeterol xinafoate and 4% w/w fluticasone propionate mixed with lactose monohydrate in a Diosna high shear blender. The nominal doses of salmeterol xinafoate and fluticasone propionate per pocket are 72.5 mcg and 500 mcg, respectively.
The salmeterol xinafoate/fluticasone propionate blend is made of 0.58% w/w salmeterol xinafoate and 4% w/w fluticasone propionate mixed with lactose monohydrate in a Diosna high shear blender. The 5-[3-(3-Hydroxyphenoxy)azetidin-1-yl]-5-methyl-2,2-diphenylhexanamide hydrochloride blend is made of 4.8% w/w 5-[3-(3-Hydroxyphenoxy)azetidin-1-yl]-5-methyl-2,2-diphenylhexanamide hydrochloride mixed with lactose monohydrate in a Diosna high shear blender. The nominal doses of salmeterol xinafoate, fluticasone propionate and 5-[3-(3-Hydroxyphenoxy)azetidin-1-yl]-5-methyl-2,2-diphenylhexanamide hydrochloride per pocket are 72.5 mcg, 500 mcg and 264 mcg, respectively.
The triple blend is prepared by mixing with a low shear Turbula mixer, a 0.58% w/w salmeterol xinafoate, 4% w/w fluticasone propionate blend with 4.8% w/w 5-[3-(3-Hydroxyphenoxy)azetidin-1-yl]-5-methyl-2,2-diphenylhexanamide hydrochloride blend in the ratio 12.5:5.5. […]

[3] = FPM from next generation impactor
[4] = mean total impactor recovery, next generation impactor

| Structure (SMILES) | FPM, ratio of geometric means (MGR002 divided by MGR003) [1, 3] | FPM, Pass/fail (0.90-1.11) ([1]; MGR002 versus MGR003) | TIR, Pass/fail (0.90-1.11) ([1]; MGR002 versus MGR003) | TIR, ratio of geometric means (MGR002 divided by MGR003) [1, 4] | FPD of the individual drug in blended combination product T3 versus baseline product [2] | FPM, ratio of geometric means (MGR001 divided by MGR003) [1, 3] | FPM, Pass/fail (0.90-1.11) ([1]; MGR001 versus MGR003) | TIR, Pass/fail (0.90-1.11) ([1]; MGR001 versus MGR003) | TIR, ratio of geometric means (MGR001 divided by MGR003) [1, 4] |
| --- | --- | --- | --- | --- | --- | --- | --- | --- | --- |
| CC(C)(CCC(C(N)=O)(c1ccccc1)c1ccccc1)N1CC(Oc2cccc(O)c2)C1.Cl [5-[3-(3-Hydroxyphenoxy)azetidin-1-yl]-5-methyl-2,2-diphenylhexanamide hydrochloride] | 0.95 | Pass | Pass | 0.97 | much lower FPD |  |  |  |  |
| CCC(=O)O[C@]1(C(=O)SCF)[C@H](C)C[C@H]2[C@@H]3C[C@H](F)C4=CC(=O)C=C[C@]4(C)[C@@]3(F)[C@@H](O)C[C@@]21C [Fluticasone propionate, fluticasone propionate] |  |  |  |  | slightly lowered FPD | 0.99 | Pass | Pass | 0.96 |
| OCc1cc(C(O)CNCCCCCCOCCCCc2ccccc2)ccc1O (stereo not drawn) [Salmeterol, salmeterol xinafoate] |  |  |  |  | more variability | 1.01 | Pass | Pass | 0.97 |
